# From ChEMBL document CHEMBL3045041, “Synthesis of novel aryl(4-substituted pyridin-3-yl)methyl carbamates and their herbicidal activity” (J Pestic Sci, 2012)
# Tests used:
# [1] = system: Elatine triandra; experiment: Herbicidal activity against Elatine triandra at 200 g a.i/ha treated at 2.3-leaf stage measured after 26 days by outdoor concrete pot test; assay type: functional
# [2] = system: Oryza sativa; experiment: Phytotoxicity against Oryza sativa cv. Kinuhikari (rice) at 200 g a.i/ha treated at 2.3-leaf stage measured after 26 days by outdoor concrete pot test; assay type: organism-based; details: in vivo, other, 624 h
# [3] = system: Schoenoplectiella juncoides; experiment: Herbicidal activity against Schoenoplectiella juncoides at 200 g a.i/ha treated at emergence stage measured after 26 days by outdoor concrete pot test; assay type: functional
# [4] = system: Rotala indica; experiment: Herbicidal activity against Rotala indica at 100 g a.i/ha treated at emergence stage measured after 26 days by outdoor concrete pot test; assay type: functional
# [5] = system: Schoenoplectiella juncoides; experiment: Herbicidal activity against Schoenoplectiella juncoides under greenhouse condition compound treated at 0.5 leaf stage measured after 14 to 20 days; assay type: functional
# [6] = system: Elatine triandra; experiment: Herbicidal activity against Elatine triandra compound treated at 1 to 2.2-leaf stage measured after 26 days by outdoor concrete pot test; assay type: functional
# [7] = system: Echinochloa oryzicola; experiment: Herbicidal activity against Echinochloa oryzicola at 200 g a.i/ha treated at emergence stage measured after 26 days by outdoor concrete pot test; assay type: functional
# [8] = system: Schoenoplectiella juncoides; experiment: Herbicidal activity against Schoenoplectiella juncoides at 100 g a.i/ha treated at 1.6-leaf stage measured after 26 days by outdoor concrete pot test; assay type: functional
# [9] = system: Lindernia procumbens; experiment: Herbicidal activity against Lindernia procumbens at 200 g a.i/ha treated at emergence stage measured after 26 days by outdoor concrete pot test; assay type: functional
# [10] = system: Echinochloa oryzicola; experiment: Herbicidal activity against Echinochloa oryzicola at 100 g a.i/ha treated at emergence stage measured after 26 days by outdoor concrete pot test; assay type: functional
# [11] = system: Rotala indica; experiment: Herbicidal activity against Rotala indica compound treated at 1 to 2.2-leaf stage measured after 26 days by outdoor concrete pot test; assay type: functional
# [12] = system: Oryza sativa; experiment: Phytotoxicity against Oryza sativa cv. Kinuhikari (rice) planted at 3 cm depth measured after 20 to 25 days; assay type: organism-based; details: in vivo
# [13] = system: Lindernia procumbens; experiment: Herbicidal activity against Lindernia procumbens at 100 g a.i/ha treated at emergence stage measured after 26 days by outdoor concrete pot test; assay type: functional
# [14] = system: Lindernia procumbens; experiment: Herbicidal activity against Lindernia procumbens at 300 g a.i/ha treated at 2.3-leaf stage measured after 26 days by outdoor concrete pot test; assay type: functional
# [15] = system: Rotala indica; experiment: Herbicidal activity against Rotala indica at 200 g a.i/ha treated at 1.6-leaf stage measured after 26 days by outdoor concrete pot test; assay type: functional
# [16] = system: Oryza sativa; experiment: Phytotoxicity against Oryza sativa cv. Kinuhikari (rice) at 100 g a.i/ha treated at 1.6-leaf stage measured after 26 days by outdoor concrete pot test; assay type: organism-based; details: in vivo, other, 624 h
# [17] = system: Lindernia procumbens; experiment: Herbicidal activity against Lindernia procumbens at 200 g a.i/ha treated at 1.6-leaf stage measured after 26 days by outdoor concrete pot test; assay type: functional
# [18] = system: Pontederia vaginalis; experiment: Herbicidal activity against Monochoria vaginalis at 200 g a.i/ha treated at 2.3-leaf stage measured after 26 days by outdoor concrete pot test; assay type: functional
# [19] = system: Lindernia procumbens; experiment: Herbicidal activity against Lindernia procumbens at 200 g a.i/ha treated at 2.3-leaf stage measured after 26 days by outdoor concrete pot test; assay type: functional
# [20] = system: Oryza sativa; experiment: Phytotoxicity against Oryza sativa cv. Kinuhikari (rice) at 200 g a.i/ha treated at emergence stage measured after 26 days by outdoor concrete pot test; assay type: organism-based; details: in vivo, other, 624 h
# [21] = system: Elatine triandra; experiment: Herbicidal activity against Elatine triandra at 100 g a.i/ha treated at emergence stage measured after 26 days by outdoor concrete pot test; assay type: functional
# [22] = system: Oryza sativa; experiment: Phytotoxicity against Oryza sativa cv. Kinuhikari (rice) at 300 g a.i/ha treated at 2.3-leaf stage measured after 26 days by outdoor concrete pot test; assay type: organism-based; details: in vivo, other, 624 h
# [23] = system: Schoenoplectiella juncoides; experiment: Herbicidal activity against Schoenoplectiella juncoides at 200 g a.i/ha treated at 2.3-leaf stage measured after 26 days by outdoor concrete pot test; assay type: functional
# [24] = system: Elatine triandra; experiment: Herbicidal activity against Elatine triandra at 200 g a.i/ha treated at emergence stage measured after 26 days by outdoor concrete pot test; assay type: functional
# [25] = system: Rotala indica; experiment: Herbicidal activity against Rotala indica at 300 g a.i/ha treated at 2.3-leaf stage measured after 26 days by outdoor concrete pot test; assay type: functional
# [26] = system: Pontederia vaginalis; experiment: Herbicidal activity against Monochoria vaginalis at 200 g a.i/ha treated at emergence stage measured after 26 days by outdoor concrete pot test; assay type: functional
# [27] = system: Elatine triandra; experiment: Herbicidal activity against Elatine triandra at 200 g a.i/ha treated at 1.6-leaf stage measured after 26 days by outdoor concrete pot test; assay type: functional
# [28] = system: Lindernia procumbens; experiment: Herbicidal activity against Lindernia procumbens compound treated at 1 to 2.2-leaf stage measured after 26 days by outdoor concrete pot test; assay type: functional
# [29] = system: Echinochloa oryzicola; experiment: Herbicidal activity against Echinochloa oryzicola compound treated at 2.5-leaf stage measured after 26 days by outdoor concrete pot test; assay type: functional
# [30] = system: Rotala indica; experiment: Herbicidal activity against Rotala indica at 200 g a.i/ha treated at 2.3-leaf stage measured after 26 days by outdoor concrete pot test; assay type: functional
# [31] = system: Echinochloa oryzicola; experiment: Herbicidal activity against Echinochloa oryzicola at 200 g a.i/ha treated at 2.3-leaf stage measured after 26 days by outdoor concrete pot test; assay type: functional
# [32] = system: Schoenoplectiella juncoides; experiment: Herbicidal activity against Schoenoplectiella juncoides at 200 g a.i/ha treated at 1.6-leaf stage measured after 26 days by outdoor concrete pot test; assay type: functional
# [33] = system: Echinochloa oryzicola; experiment: Herbicidal activity against Echinochloa oryzicola compound treated at emergence stage measured after 26 days by outdoor concrete pot test; assay type: functional
# [34] = system: Echinochloa oryzicola; experiment: Herbicidal activity against Echinochloa oryzicola at 200 g a.i/ha treated at 1.6-leaf stage measured after 26 days by outdoor concrete pot test; assay type: functional
# [35] = system: Elatine triandra; experiment: Herbicidal activity against Elatine triandra at 100 g a.i/ha treated at 1.6-leaf stage measured after 26 days by outdoor concrete pot test; assay type: functional
# [36] = system: Echinochloa oryzicola; experiment: Herbicidal activity against Echinochloa oryzicola at 300 g a.i/ha treated at 2.3-leaf stage measured after 26 days by outdoor concrete pot test; assay type: functional
# [37] = system: Echinochloa oryzicola; experiment: Herbicidal activity against Echinochloa oryzicola under greenhouse condition compound treated at emergence stage measured after 14 to 20 days; assay type: functional
# [38] = system: Oryza sativa; experiment: Phytotoxicity against Oryza sativa cv. Kinuhikari (rice) planted at 3 cm depth measured after 26 days; assay type: organism-based; details: in vivo, 624 h
# [39] = system: Echinochloa oryzicola; experiment: Herbicidal activity against Echinochloa oryzicola at 100 g a.i/ha treated at 1.6-leaf stage measured after 26 days by outdoor concrete pot test; assay type: functional
# [40] = system: Oryza sativa; experiment: Phytotoxicity against Oryza sativa cv. Kinuhikari (rice) at 200 g a.i/ha treated at 1.6-leaf stage measured after 26 days by outdoor concrete pot test; assay type: organism-based; details: in vivo, other, 624 h
# [41] = system: Echinochloa oryzicola; experiment: Herbicidal activity against Echinochloa oryzicola under greenhouse condition compound treated at 2.5 leaf stage measured after 14 to 20 days; assay type: functional
# [42] = system: Pontederia vaginalis; experiment: Herbicidal activity against Monochoria vaginalis at 200 g a.i/ha treated at 1.6-leaf stage measured after 26 days by outdoor concrete pot test; assay type: functional
# [43] = system: Rotala indica; experiment: Herbicidal activity against Rotala indica at 100 g a.i/ha treated at 1.6-leaf stage measured after 26 days by outdoor concrete pot test; assay type: functional
# [44] = system: Schoenoplectiella juncoides; experiment: Herbicidal activity against Schoenoplectiella juncoides compound treated at 0.5-leaf stage measured after 26 days by outdoor concrete pot test; assay type: functional
# [45] = system: Schoenoplectiella juncoides; experiment: Herbicidal activity against Schoenoplectiella juncoides at 300 g a.i/ha treated at 2.3-leaf stage measured after 26 days by outdoor concrete pot test; assay type: functional
# [46] = system: Pontederia vaginalis; experiment: Herbicidal activity against Monochoria vaginalis at 100 g a.i/ha treated at 1.6-leaf stage measured after 26 days by outdoor concrete pot test; assay type: functional
# [47] = system: Schoenoplectiella juncoides; experiment: Herbicidal activity against Schoenoplectiella juncoides at 100 g a.i/ha treated at emergence stage measured after 26 days by outdoor concrete pot test; assay type: functional
# [48] = system: Pontederia vaginalis; experiment: Herbicidal activity against Monochoria vaginalis at 300 g a.i/ha treated at 2.3-leaf stage measured after 26 days by outdoor concrete pot test; assay type: functional
# [49] = system: Rotala indica; experiment: Herbicidal activity against Rotala indica at 200 g a.i/ha treated at emergence stage measured after 26 days by outdoor concrete pot test; assay type: functional
# [50] = system: Oryza sativa; experiment: Phytotoxicity against Oryza sativa cv. Kinuhikari (rice) at 100 g a.i/ha treated at emergence stage measured after 26 days by outdoor concrete pot test; assay type: organism-based; details: in vivo, other, 624 h
# [51] = system: Elatine triandra; experiment: Herbicidal activity against Elatine triandra at 300 g a.i/ha treated at 2.3-leaf stage measured after 26 days by outdoor concrete pot test; assay type: functional
# [52] = system: Lindernia procumbens; experiment: Herbicidal activity against Lindernia procumbens at 100 g a.i/ha treated at 1.6-leaf stage measured after 26 days by outdoor concrete pot test; assay type: functional
# [53] = system: Pontederia vaginalis; experiment: Herbicidal activity against Monochoria vaginalis at 100 g a.i/ha treated at emergence stage measured after 26 days by outdoor concrete pot test; assay type: functional
smiles,measurement,setting,value
CN(C)C(=O)OC(c1cnccc1C(F)(F)F)c1cccc2ccccc12 (racemic),Efficacy,[1],100%
same,Efficacy,[2],0%
same,Efficacy,[3],0%
same,Efficacy,[4],100%
same,ED80,[5],250 gAi/ha
same,ED80,[6],100 gAi/ha
same,Efficacy,[7],100%
same,Efficacy,[8],0%
same,Efficacy,[9],100%
same,Efficacy,[10],100%
same,ED80,[11],100 gAi/ha
same,ED20,[12],2000 gAi/ha
same,Efficacy,[13],100%
same,Efficacy,[14],100%
same,Efficacy,[15],100%
same,Efficacy,[16],0%
same,Efficacy,[17],100%
same,Efficacy,[18],99%
same,Efficacy,[19],100%
same,Efficacy,[20],16%
same,Efficacy,[21],100%
same,Efficacy,[22],6%
same,Efficacy,[23],0%
same,Efficacy,[24],100%
same,Efficacy,[25],100%
same,Efficacy,[26],100%
same,Efficacy,[27],100%
same,ED80,[28],100 gAi/ha
same,ED80,[29],125 gAi/ha
same,Efficacy,[30],100%
same,Efficacy,[31],95%
same,Efficacy,[32],0%
same,ED80,[33],31 gAi/ha
same,Efficacy,[34],95%
same,Efficacy,[35],100%
same,Efficacy,[36],95%
same,ED80,[37],31 gAi/ha
same,ED20,[38],2000 gAi/ha
same,Efficacy,[39],95%
same,Efficacy,[40],0%
same,ED80,[41],125 gAi/ha
same,Efficacy,[42],100%
same,Efficacy,[43],100%
same,ED80,[44],250 gAi/ha
same,Efficacy,[45],0%
same,Efficacy,[46],89%
same,Efficacy,[47],0%
same,Efficacy,[48],100%
same,Efficacy,[49],100%
same,Efficacy,[50],11%
same,Efficacy,[51],100%
same,Efficacy,[52],100%
same,Efficacy,[53],100%
